Test: xn = mol fraction of the nth substance listed
Details: Liquid; for viscosity: 100 kPa, Capillary tube (Ostwald / Ubbelohde) method; for mass density: 1000 kPa, Vibrating tube method

COC(C)(C)C [2-methoxy-2-methylpropane] + CCCCCCC
Details	mass density [kg/m3]	viscosity [mPa·s]
293.15 K, x1 = 0.1042	688.15	–
293.15 K, x1 = 0.2146	693.02	–
293.15 K, x1 = 0.3024	697.02	–
293.15 K, x1 = 0.3982	701.73	–
293.15 K, x1 = 0.4996	707.09	–
293.15 K, x1 = 0.5875	712.13	–
293.15 K, x1 = 0.5989	–	0.369
293.15 K, x1 = 0.6981	–	0.364
293.15 K, x1 = 0.6985	718.92	–
293.15 K, x1 = 0.7887	–	0.359
293.15 K, x1 = 0.794	725.22	–
293.15 K, x1 = 0.889	731.98	–
298.15 K, x1 = 0.1004	–	0.384
298.15 K, x1 = 0.1042	683.83	–
298.15 K, x1 = 0.1998	–	0.377
298.15 K, x1 = 0.2146	688.62	–
298.15 K, x1 = 0.3008	–	0.37
298.15 K, x1 = 0.3024	692.54	–
298.15 K, x1 = 0.3982	697.16	–
298.15 K, x1 = 0.4024	–	0.363
298.15 K, x1 = 0.4996	702.42	–
298.15 K, x1 = 0.5007	–	0.357
298.15 K, x1 = 0.5875	707.37	–
298.15 K, x1 = 0.6985	714.04	–
298.15 K, x1 = 0.794	720.23	–
298.15 K, x1 = 0.889	726.87	–
303.15 K, x1 = 0.1004	–	0.365
303.15 K, x1 = 0.1042	679.49	–
303.15 K, x1 = 0.1998	–	0.358
303.15 K, x1 = 0.2146	684.18	–
303.15 K, x1 = 0.3008	–	0.351
303.15 K, x1 = 0.3024	688.02	–
303.15 K, x1 = 0.3982	692.55	–
303.15 K, x1 = 0.4024	–	0.344
303.15 K, x1 = 0.4996	697.72	–
303.15 K, x1 = 0.5875	702.57	–
303.15 K, x1 = 0.6985	709.11	–
303.15 K, x1 = 0.794	715.19	–
303.15 K, x1 = 0.889	721.72	–
308.15 K, x1 = 0.1004	–	0.347
308.15 K, x1 = 0.1042	675.12	–
308.15 K, x1 = 0.1998	–	0.34
308.15 K, x1 = 0.2146	679.71	–
308.15 K, x1 = 0.3024	683.48	–
308.15 K, x1 = 0.3982	687.91	–
308.15 K, x1 = 0.4996	692.98	–
308.15 K, x1 = 0.5875	697.73	–
308.15 K, x1 = 0.6985	704.14	–
308.15 K, x1 = 0.794	710.11	–
313.15 K, x1 = 0.1004	–	0.33
313.15 K, x1 = 0.1042	670.71	–
313.15 K, x1 = 0.2146	675.19	–
313.15 K, x1 = 0.3024	678.89	–
313.15 K, x1 = 0.3982	683.23	–
313.15 K, x1 = 0.4996	688.2	–
313.15 K, x1 = 0.5875	692.85	–
313.15 K, x1 = 0.6985	699.12	–
318.15 K, x1 = 0.1042	666.28	–
318.15 K, x1 = 0.2146	670.65	–
318.15 K, x1 = 0.3024	674.26	–
318.15 K, x1 = 0.3982	678.51	–
318.15 K, x1 = 0.4996	683.38	–
318.15 K, x1 = 0.5875	687.92	–
323.15 K, x1 = 0.1042	661.8	–
323.15 K, x1 = 0.2146	666.08	–
323.15 K, x1 = 0.3024	669.6	–
323.15 K, x1 = 0.3982	673.75	–
323.15 K, x1 = 0.4996	678.5	–
328.15 K, x1 = 0.1042	657.27	–
328.15 K, x1 = 0.2146	661.46	–
328.15 K, x1 = 0.3024	664.89	–
328.15 K, x1 = 0.3982	668.93	–
333.15 K, x1 = 0.1042	652.74	–
333.15 K, x1 = 0.2146	656.77	–
333.15 K, x1 = 0.3024	660.13	–
338.16 K, x1 = 0.1042	648.13	–
338.16 K, x1 = 0.2146	652.07	–
343.16 K, x1 = 0.1042	643.27	–

— the NIST ThermoML archive (doi:10.1021/je600554h)
